From patent publication US8501713B2, “Drug combinations for the treatment of duchenne muscular dystrophy” (Summit Corporation PLC, priority 2007, dated 2013)

Test system: Utrophin A promoter linked to a luciferase reporter gene
Test: Luciferase reporter assay (murine H2K cells)
Assay type: cell-based
Settings: Mus musculus, H2K mdx, luciferase level relative to control; H2K/mdx/Utro A reporter cells; compound 10 μM final concentration; read-out: Activity
Outline: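 Compound at 10 μM final was applied for 48 hrs to plated H2K mdx myoblasts (33° C, 10% CO2, interferon-containing medium) bearing a luciferase gene under the utrophin A promoter. Luminescence from lysed cells served as read-out.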

Compound | activity at 10 µM
Nc1ccc2oc(SCc3ccc(Cl)cc3)nc2c1 [Example 380, 2-(4-chlorobenzylthio)benzo[d]oxazol-5-amine] | < 200%
Nc1ccc2oc(NCc3ccc(Cl)cc3)nc2c1 [Example 381, N2-(4-chlorobenzyl)benzo[d]oxazole-2,5-diamine] | < 200%
Cc1ccc(CSc2nc3cc([N+](=O)[O-])ccc3o2)cc1 [Example 382, 2-(4-methylbenzylthio)-5-nitrobenzo[d]oxazole] | < 200%
CC(C)C(=O)Nc1ccc2oc(SCc3ccc(Cl)cc3)nc2c1 [Example 383, N-(2-(4-chlorobenzylthio)benzo[d]oxazol-5-yl)isobutyramide] | < 200%
CC(C)C(=O)Nc1ccc2oc(-c3ccc4ccccc4c3)nc2c1 [Example 384, N-(2-(naphthalen-2-yl)benzo[d]oxazol-5-yl)isobutyramide] | 301 to 400%
O=C(Nc1ccc2oc(-c3ccc4ccccc4c3)nc2c1)c1cccs1 [Example 385, N-(2-(naphthalen-2-yl)benzo[d]oxazol-5-yl)thiophene-2-carboxamide] | < 200%
CCOC(=O)Nc1ccc2oc(-c3ccc(Cl)cc3)nc2c1 [Example 386, ethyl 2-(4-chlorophenyl)benzo[d]oxazol-5-ylcarbamate] | < 200%
CC(C)C(=O)Nc1ccc2ccn(Cc3ccccc3)c2c1 [Example 387, N-(1-benzyl-1H-indol-6-yl)isobutyramide] | < 200%
O=[N+]([O-])c1ccc2oc(-c3cccs3)nc2c1 [Example 388, 5-nitro-2-(thiophen-2-yl)benzo[d]oxazole] | < 200%
CC(C)C(=O)Nc1ccc2cc(-c3ccccc3)n(C)c2c1 [Example 389, N-(1-methyl-2-phenyl-1H-indol-6-yl)isobutyramide] | < 200%
CCS(=O)(=O)c1ccc2oc(-c3cccc(Cl)c3F)nc2c1 [Example 391, 2-(3-chloro-2-fluorophenyl)-5-(ethylsulfonyl)benzo[d]oxazole] | 201 to 300%
CCS(=O)(=O)c1ccc2oc(C3CCCCC3)nc2c1 [Example 392, 2-cyclohexyl-5-(ethylsulfonyl)benzo[d]oxazole] | < 200%
CCS(=O)(=O)c1ccc2oc(-c3ccc(Cl)cn3)nc2c1 [Example 393, 2-(5-chloropyridin-2-yl)-5-(ethylsulfonyl)benzo[d]oxazole] | 201 to 300%
CCS(=O)(=O)c1ccc2oc(-c3ccc4c(c3)OCO4)nc2c1 [Example 394, 2-(benzo[d][1,3]dioxol-5-yl)-5-(ethylsulfonyl)benzo[d]oxazole] | > 401%
CS(=O)(=O)c1ccc(-c2nc3cc(Cl)ccc3o2)cc1 [Example 395, 5-chloro-2-(4-(methylsulfonyl)phenyl)benzo[d]oxazole] | 201 to 300%
CC(C)C(=O)Nc1ccc2oc(-c3ccccc3)cc2c1 [Example 396, N-(2-phenylbenzofuran-5-yl)isobutyramide] | > 401%
Nc1cc2oc(-c3ccc4c(c3)OCO4)nc2cc1Cl [Example 397, 2-(benzo[d][1,3]dioxol-5-yl)-5-chlorobenzo[d]oxazol-6-amine] | 301 to 400%
CC(C)C(=O)Nc1cc2oc(-c3ccc4c(c3)OCO4)nc2cc1Cl [Example 398, N-(2-(benzo[d][1,3]dioxol-5-yl)-5-chlorobenzo[d]oxazol-6-yl)isobutyramide] | < 200%
CSc1ccc2nc(-c3ccc(Cl)cc3)sc2c1 [Example 399, 2-(4-chlorophenyl)-6-(methylthio)benzo[d]thiazole] | 301 to 400%
CS(=O)(=O)c1ccc2oc(-c3ccc(Cl)cc3)nc2c1 [Example 400, 2-(4-chlorophenyl)-5-(methylsulfonyl)benzo[d]oxazole] | 201 to 300%
Nc1ccc2oc(-c3ccc(-c4ccccc4)cc3)nc2c1 [Example 401, 2-(biphenyl-4-yl)benzo[d]oxazol-5-amine] | 301 to 400%
Nc1ccc2oc(-c3ccc4ccccc4n3)nc2c1 [Example 402, 2-(quinolin-2-yl)benzo[d]oxazol-5-amine] | 301 to 400%
Nc1ccc2oc(-c3cnc4ccccc4c3)nc2c1 [Example 403, 2-(quinolin-3-yl)benzo[d]oxazol-5-amine] | 301 to 400%
COc1ccc2cc(-c3nc4cc(N)ccc4o3)ccc2c1 [Example 404, 2-(6-methoxynaphthalen-2-yl)benzo[d]oxazol-5-amine] | 201 to 300%
Nc1ccc2oc(-c3ccc4cc(Br)ccc4c3)nc2c1 [Example 405, 2-(6-bromonaphthalen-2-yl)benzo[d]oxazol-5-amine] | < 200%
CS(=O)(=O)c1ccc2nc(-c3ccc(Cl)cc3)sc2c1 [Example 406, 2-(4-chlorophenyl)-6-(methylsulfonyl)benzo[d]thiazole] | > 401%
CC(=O)Sc1ccc2oc(-c3ccc(Cl)cc3)nc2c1 [Example 407, S-2-(4-chlorophenyl)benzo[d]oxazol-5-yl ethanethioate] | < 200%

Compound | activity at 10 µM
O=C(CC(F)(F)F)Nc1ccc2oc(-c3ccccc3)cc2c1 [Example 408, 2-phenyl-5-(3′,3′,3′-trifluoropropanamido)benzofuran] | < 200%
Clc1ccc(-c2nc3c(ccc4ccccc43)o2)cc1 [Example 409, 2-(4-chlorophenyl)naphtho[1,2-d]oxazole] | > 401%
CC(C)C(=O)Nc1ccc2oc(-c3cccc4ccccc34)nc2c1 [Example 410, N-(2-(naphthalen-1-yl)benzo[d]oxazol-5-yl)isobutyramide] | < 200%
CC(C)C(=O)Nc1ccc2oc(-c3ccc(-c4ccccc4)cc3)nc2c1 [Example 411, N-(2-(biphenyl-4-yl)benzo[d]oxazol-5-yl)isobutyramide] | < 200%
COc1ccc2cc(-c3nc4cc(NC(=O)C(C)C)ccc4o3)ccc2c1 [Example 412, N-(2-(6-methoxynaphthalen-2-yl)benzo[d]oxazol-5-yl)isobutyramide] | < 200%
CC(C)C(=O)Nc1ccc2oc(-c3ccc4cc(Br)ccc4c3)nc2c1 [Example 413, N-(2-(6-bromonaphthalen-2-yl)benzo[d]oxazol-5-yl)isobutyramide] | < 200%
CC(C)C(=O)Nc1ccc2oc(-c3ccc(Cl)cc3)cc2c1 [Example 414, 2-(4′-chlorophenyl)-5-isobutyramido-benzofuran] | < 200%
CC(C)C(=O)Nc1ccc2oc(-c3cnc4ccccc4c3)nc2c1 [Example 415, N-(2-(quinolin-3-yl)benzo[d]oxazol-5-yl)isobutyramide] | > 401%
CC(C)C(=O)Nc1ccc2oc(-c3ccc4ccccc4n3)nc2c1 [Example 416, N-(2-(quinolin-2-yl)benzo[d]oxazol-5-yl)isobutyramide] | > 401%
CCC(=O)c1ccc2oc(-c3ccc(Cl)cc3)nc2c1 [Example 417, 1-(2-(4-chlorophenyl)benzo[d]oxazol-5-yl)propan-1-one] | > 401%
CCS(=O)(=O)c1ccc2oc(-c3ccc(C)s3)nc2c1 [Example 418, 5-(ethylsulfonyl)-2-(5-methylthiophen-2-yl)benzo[d]oxazole] | > 401%
CC(C)C(=O)Nc1ccc2oc(-c3ccco3)nc2c1 [Example 419, N-(2-(furan-2-yl)benzo[d]oxazol-5-yl)isobutyramide] | > 401%
CC(=O)c1ccc2oc(-c3ccc(Cl)cc3)nc2c1 [Example 420, 1-(2-(4-chlorophenyl)benzo[d]oxazol-5-yl)ethanone] | > 401%
Nc1ccc2oc(-c3ccc(C4CCCCC4)cc3)nc2c1 [Example 421, 2-(4-cyclohexylphenyl)benzo[d]oxazol-5-amine] | > 401%
CCS(=O)(=O)c1ccc2oc(-c3ccc4ccccc4n3)nc2c1 [Example 422, 5-(ethylsulfonyl)-2-(quinolin-2-yl)benzo[d]oxazole] | > 401%
CCS(=O)(=O)c1ccc2oc(-c3cnc4ccccc4c3)nc2c1 [Example 423, 5-(ethylsulfonyl)-2-(quinolin-3-yl)benzo[d]oxazole] | > 401%
CCS(=O)(=O)c1ccc2oc(-c3ccc4cc(Br)ccc4c3)nc2c1 [Example 424, 2-(6-bromonaphthalen-2-yl)-5-(ethylsulfonyl)benzo[d]oxazole] | < 200%
CCS(=O)(=O)c1ccc2oc(-c3ccc(C4CCCCC4)cc3)nc2c1 [Example 425, 2-(4-cyclohexylphenyl)-5-(ethylsulfonyl)benzo[d]oxazole] | < 200%
CCS(=O)(=O)c1ccc2oc(-c3ccc(-c4ccccc4)cc3)nc2c1 [Example 426, 2-(biphenyl-4-yl)-5-(ethylsulfonyl)benzo[d]oxazole] | < 200%
CCS(=O)(=O)c1ccc2oc(-c3cccc4ccccc34)nc2c1 [Example 427, 5-(ethylsulfonyl)-2-(naphthalen-1-yl)benzo[d]oxazole] | < 200%
Nc1ccc(-c2nc3cc(Cl)c(Cl)cc3o2)c(O)c1 [Example 428, 5-amino-2-(5,6-dichlorobenzo[d]oxazol-2-yl)phenol] | 301 to 400%
CCS(=O)(=O)c1ccc2oc(-c3cccs3)nc2c1 [Example 429, 5-(ethylsulfonyl)-2-(thiophen-2-yl)benzo[d]oxazole] | 201 to 300%
CC(C)C(=O)Nc1ccc2oc(-c3ccc(C4CCCCC4)cc3)nc2c1 [Example 430, N-(2-(4-cyclohexylphenyl)benzo[d]oxazol-5-yl)isobutyramide] | < 200%
CCS(=O)(=O)c1ccc2oc(-c3ccc4cc(F)ccc4c3)nc2c1 [Example 431, 5-(ethylsulfonyl)-2-(6-fluoronaphthalen-2-yl)benzo[d]oxazole] | < 200%
CCS(=O)(=O)c1ccc2oc(-c3ccc4sccc4c3)nc2c1 [Example 432, 2-(benzo[b]thiophen-5-yl)-5-(ethylsulfonyl)benzo[d]oxazole] | > 401%
CC(=O)Nc1ccc(-c2nc3cc(C)c(C)cc3o2)c(O)c1 [Example 433, N-(4-(5,6-dimethylbenzo[d]oxazol-2-yl)-3-hydroxyphenyl)acetamide] | 201 to 300%
